# Assay results published in ChEMBL document CHEMBL1201862, “PubChem BioAssay data set” (2004).
# Calls of active or inactive are those of the source.
# What was measured:
# Beta-galactosidase = Beta-galactosidase (Escherichia coli, UniProt Q8VNN2); experiment: beta-galactosidase enzyme inhibitors and activators, dose response, artefact control for CCR6 antagonist project, biochemical, E. coli enzyme, set 3 (AID 504712); assay type: functional
# Hexokinase HKDC1 = biological target: T1, Hexokinase HKDC1 (Homo sapiens, UniProt Q2TB90); experiment: HKDC1 hexokinase inhibitors, dose response, biochemical, W721R variant (AID 504729); assay type: functional
# T1 sequence (Q2TB90 whole entry): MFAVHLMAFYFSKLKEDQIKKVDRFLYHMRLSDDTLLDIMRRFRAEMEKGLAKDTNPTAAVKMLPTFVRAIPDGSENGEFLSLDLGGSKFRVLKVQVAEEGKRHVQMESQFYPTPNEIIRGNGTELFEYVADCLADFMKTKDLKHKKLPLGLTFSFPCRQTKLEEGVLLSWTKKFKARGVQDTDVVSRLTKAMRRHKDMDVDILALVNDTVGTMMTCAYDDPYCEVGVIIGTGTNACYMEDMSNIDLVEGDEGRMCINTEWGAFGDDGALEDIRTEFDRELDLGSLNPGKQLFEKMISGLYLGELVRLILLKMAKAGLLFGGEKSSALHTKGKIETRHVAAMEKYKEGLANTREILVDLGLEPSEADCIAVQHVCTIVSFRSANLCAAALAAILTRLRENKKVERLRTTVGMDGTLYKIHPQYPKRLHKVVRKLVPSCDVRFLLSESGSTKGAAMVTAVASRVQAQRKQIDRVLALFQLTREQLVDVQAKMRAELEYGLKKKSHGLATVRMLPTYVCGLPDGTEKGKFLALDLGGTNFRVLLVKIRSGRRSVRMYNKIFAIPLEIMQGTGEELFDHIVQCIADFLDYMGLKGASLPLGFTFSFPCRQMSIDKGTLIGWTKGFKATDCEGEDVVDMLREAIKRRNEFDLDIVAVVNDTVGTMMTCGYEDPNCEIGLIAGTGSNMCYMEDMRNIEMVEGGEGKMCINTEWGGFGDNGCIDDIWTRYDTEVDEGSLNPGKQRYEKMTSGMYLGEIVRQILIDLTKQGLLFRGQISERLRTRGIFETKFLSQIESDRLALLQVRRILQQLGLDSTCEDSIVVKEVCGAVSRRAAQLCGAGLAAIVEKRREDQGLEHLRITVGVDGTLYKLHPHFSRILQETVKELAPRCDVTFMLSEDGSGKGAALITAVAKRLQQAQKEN
# [1] = biological target: C-C chemokine receptor type 6 (Homo sapiens, UniProt P51684); experiment: CCR6 receptor antagonists, dose response, cell-based, luminescent beta-arrestin readout (AID 504728); assay type: functional
# [2] = THP-1 cell cytotoxicity, dose response, cytotoxicity control for non-replicating M. tuberculosis project (AID 489025); assay type: functional
# [3] = human group III sPLA2 inhibitors, dose response, biochemical, QFRET, IC50 (AID 743457);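 also: green fluorescence rise as the enzyme cleaves BODIPY PC-A2 in liposomes; potency for inhibition of the enzyme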
# [4] = biological target: T2, Polyadenylate-binding protein 1 (Homo sapiens, UniProt P11940); experiment: PABP1 MLLE–PAM2 binding inhibitor potency, dose response, biochemical, fluorescence polarization, FITC-PAM2 peptide (AID 602259); assay type: functional; conditions: read-out: IC50_Mean
# [5] = THP-1 cell cytotoxicity, dose response, cytotoxicity control for Vif-APOBEC3G degradation inhibitor project, THP-1 cells (AID 1117359); assay type: functional; conditions: Human immunodeficiency virus 1, THP-1
# [6] = biological target: Eukaryotic translation initiation factor 4E (Mus musculus, UniProt P63073); experiment: eIF4E–eIF4G protein interaction inhibitors, dose response, biochemical, TR-FRET (AID 855); assay type: functional;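 also: potency for disrupting eIF4E binding to eIF4GI seen as loss of FRET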
# [7] = biological target: T2, Polyadenylate-binding protein 1; experiment: PABP1 MLLE–PAM2 interaction inhibitors, dose response, miRNA deadenylation inhibitor project, biochemical, fluorescence polarization, Cy5-PAM2 peptide, secondary (AID 602260); assay type: functional; conditions: read-out: IC50_Mean
# [8] = biological target: Induced myeloid leukemia cell differentiation protein Mcl-1 (Homo sapiens, UniProt Q07820); assay type: functional
# [9] = biological target: Glucose-6-phosphate 1-dehydrogenase (Homo sapiens, UniProt P11413); experiment: human G6PD enzyme inhibitors, dose response, selectivity assay for P. falciparum G6PD inhibitor project, biochemical, fluorescence (AID 504792); assay type: functional
# [10] = inhibitors of intracellular T. cruzi replication, confirmation, NIH3T3 host cells, beta-gal luminescence (AID 2044); assay type: functional, cell-based;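 also: intracellular parasites grown in NIH/3T3 mouse fibroblasts as host cells; luminescent beta-galactosidase reporter signal from transgenic T. cruzi replicating inside host cells; inhibitors lower the luminescence signal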
# [11] = cytotoxicity toward NIH3T3 fibroblasts, dose response, counter-screen, cell-based, ATP luminescence, mouse fibroblasts (AID 2010); assay type: functional;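 also: cells exposed to compound for about 90 hours before reading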
# Caspase-3 = biological target: T3, Caspase-3 (Homo sapiens, UniProt P42574); experiment: procaspase-3 activators, dose response, biochemical, absorbance (AID 489014)
# T3 sequence (P42574 whole entry): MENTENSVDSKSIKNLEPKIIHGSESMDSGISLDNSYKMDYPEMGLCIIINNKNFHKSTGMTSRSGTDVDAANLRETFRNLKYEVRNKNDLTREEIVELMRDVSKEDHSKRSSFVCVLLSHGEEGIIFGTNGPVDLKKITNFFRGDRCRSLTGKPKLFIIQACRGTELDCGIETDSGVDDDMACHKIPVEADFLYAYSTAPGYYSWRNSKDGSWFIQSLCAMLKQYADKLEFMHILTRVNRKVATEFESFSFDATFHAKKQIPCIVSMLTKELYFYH
# Caspase-7 = Caspase-7 (Homo sapiens, UniProt P55210); experiment: procaspase-7 activators, dose response, counter-screen for procaspase-3 activator project, biochemical, absorbance (AID 489013)
# [12] = NIH-3T3 fibroblast cytotoxicity, dose response, cytotoxicity control, cell-based, fluorescence, Alamar Blue, secondary assay (AID 2327); assay type: functional;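 also: NIH-3T3 mouse fibroblasts cultured with fluconazole at 8 µg/mL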
# [13] = biological target: Envelope glycoprotein gp160 (Human immunodeficiency virus 1, UniProt Q6QLK5); experiment: inhibitors of HIV fusion peptide binding, primary screen, biochemical, uHTS, fluorescence dequenching (AID 1986)
# [14] = C. albicans growth with fluconazole, confirmation, fluorescence, retest (AID 2467); assay type: functional, cell-based
# [15] = biological target: ATP-dependent molecular chaperone HSP82 (Candida albicans (strain WO-1) (Yeast), UniProt C4YTQ8); experiment: loss of DOC-induced GRE-beta-galactosidase reporter signal, dose response, Hsp90 inhibitor project, S. cerevisiae, luminescence (AID 2400); assay type: functional, cell-based;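 also: beta-galactosidase luminescence from glucocorticoid response element reporter as proxy for Hsp90 function; inhibitor potency where signal loss means Hsp90 inhibition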
# [16] = biological target: T4, Serine/threonine-protein phosphatase (Candida dubliniensis (strain CD36 / CBS 7987 / NCPF 3949 / NRRLY-17841) (Yeast), UniProt B9W6M3); experiment: calcineurin pathway inhibitors in yeast reporter, dose response, S. cerevisiae, CDRE-lacZ, luminescence, secondary (AID 2388); assay type: functional, cell-based;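 also: yeast reporter cells carrying a calcineurin-responsive lacZ construct stimulated with calcium chloride; luminescent beta-galactosidase reporter signal in whole cells rather than isolated phosphatase activity; potency for inhibition where a drop in reporter signal means calcineurin blockade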
# T4 sequence (B9W6M3 whole entry): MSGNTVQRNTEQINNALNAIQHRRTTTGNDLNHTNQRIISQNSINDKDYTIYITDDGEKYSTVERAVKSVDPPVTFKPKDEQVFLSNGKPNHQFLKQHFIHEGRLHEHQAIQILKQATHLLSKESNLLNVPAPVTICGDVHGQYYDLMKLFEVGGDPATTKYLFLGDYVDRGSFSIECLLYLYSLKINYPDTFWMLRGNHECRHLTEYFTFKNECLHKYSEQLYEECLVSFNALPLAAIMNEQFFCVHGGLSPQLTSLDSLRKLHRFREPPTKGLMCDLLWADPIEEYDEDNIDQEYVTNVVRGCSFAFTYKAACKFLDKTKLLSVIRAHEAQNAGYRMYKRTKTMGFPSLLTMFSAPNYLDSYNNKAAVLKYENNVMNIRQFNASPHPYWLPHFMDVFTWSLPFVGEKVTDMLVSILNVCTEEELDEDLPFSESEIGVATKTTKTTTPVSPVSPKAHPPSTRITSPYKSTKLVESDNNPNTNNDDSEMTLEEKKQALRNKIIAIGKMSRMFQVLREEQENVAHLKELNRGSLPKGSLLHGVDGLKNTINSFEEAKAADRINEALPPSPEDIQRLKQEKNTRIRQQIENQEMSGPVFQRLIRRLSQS
# Mu-type opioid receptor [17] = biological target: T5, Mu-type opioid receptor (Homo sapiens, UniProt P35372); experiment: HTS Image-Based Screen for Agonists of the MOR Receptor. [Related pubchem assays (depositor defined):AID1777, AID1785, AID1786, AID2133]; assay type: functional
# Mu-type opioid receptor [18] = biological target: T5, Mu-type opioid receptor; experiment: MOR antagonists, SAR follow-up, image-based (AID 2420); assay type: functional;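 also: compounds added before stimulation of receptor with agonist DAMGO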
# Mu-type opioid receptor [19] = biological target: T5, Mu-type opioid receptor; experiment: MOR agonists by imaging, SAR follow-up, image-based (AID 2352); assay type: functional
# [20] = biological target: T6, Kappa-type opioid receptor (Homo sapiens, UniProt P41145); experiment: KOR antagonists by imaging, SAR follow-up, image-based (AID 2348); assay type: functional
# [21] = biological target: T6, Kappa-type opioid receptor; assay type: functional
# [22] = HEp-2 cell cytotoxicity, dose response, cytotoxicity control for RSV inhibitor project, HTS (AID 2410); assay type: functional; conditions: human respiratory syncytial virus
# [23] = biological target: T7, Delta-type opioid receptor (Homo sapiens, UniProt P41143); experiment: HTS Image-Based Screen for Antagonists of the DOR Receptor. [Related pubchem assays (depositor defined):AID1777, AID1785, AID1786, AID2133]; assay type: functional
# [24] = biological target: T7, Delta-type opioid receptor; experiment: HTS Image-Based Screen for Agonists of the DOR Receptor. [Related pubchem assays (depositor defined):AID1777, AID1786, AID2133]; assay type: functional
# [25] = biological target: T7, Delta-type opioid receptor; experiment: DOR antagonists, SAR follow-up, image-based (AID 2357); assay type: functional
# [26] = biological target: T7, Delta-type opioid receptor; experiment: DOR agonists, SAR follow-up, image-based (AID 2370); assay type: functional
# [27] = biological target: T6, Kappa-type opioid receptor; assay type: functional; remark: listed apart in the source
# [28] = biological target: T8, Tyrosine-protein phosphatase non-receptor type 22 (Homo sapiens, UniProt Q9Y2R2); experiment: SAR LYP1 Fluorescent Assay using OMFP substrate for In Vitro dose response studies - Set 4. [Related pubchem assays (depositor defined):AID1779, AID1784, AID2140, AID2686]; assay type: functional
# T8 sequence (Q9Y2R2 whole entry): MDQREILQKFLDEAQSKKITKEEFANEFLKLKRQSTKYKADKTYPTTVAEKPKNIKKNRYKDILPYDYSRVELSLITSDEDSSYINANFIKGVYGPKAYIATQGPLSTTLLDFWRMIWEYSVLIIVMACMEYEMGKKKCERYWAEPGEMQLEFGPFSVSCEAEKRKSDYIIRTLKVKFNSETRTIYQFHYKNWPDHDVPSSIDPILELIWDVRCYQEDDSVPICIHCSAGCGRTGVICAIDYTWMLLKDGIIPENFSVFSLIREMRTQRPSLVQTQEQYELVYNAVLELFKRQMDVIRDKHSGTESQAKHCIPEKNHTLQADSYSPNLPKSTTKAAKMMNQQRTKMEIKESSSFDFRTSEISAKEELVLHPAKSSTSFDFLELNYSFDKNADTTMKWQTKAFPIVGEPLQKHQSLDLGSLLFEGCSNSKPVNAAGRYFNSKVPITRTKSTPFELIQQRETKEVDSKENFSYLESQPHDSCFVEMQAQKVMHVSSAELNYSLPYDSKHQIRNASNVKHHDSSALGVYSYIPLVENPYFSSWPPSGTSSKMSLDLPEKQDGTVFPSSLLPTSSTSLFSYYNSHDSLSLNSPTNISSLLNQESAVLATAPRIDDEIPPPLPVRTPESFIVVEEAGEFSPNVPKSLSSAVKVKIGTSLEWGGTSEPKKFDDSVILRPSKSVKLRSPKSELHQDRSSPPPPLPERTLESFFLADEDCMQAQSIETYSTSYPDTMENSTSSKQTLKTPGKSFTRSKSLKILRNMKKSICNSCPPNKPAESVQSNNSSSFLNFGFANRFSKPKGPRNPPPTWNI
# [29] = biological target: Tyrosine-protein phosphatase non-receptor type 12 (Homo sapiens, UniProt Q05209); experiment: SAR Selectivity Analysis of small molecule inhibitors of PEST using pCAP in a fluorescence assay. [Related pubchem assays (depositor defined):AID1779, AID1784, AID2135]; assay type: functional
# [30] = biological target: T8, Tyrosine-protein phosphatase non-receptor type 22; experiment: SAR LYP1 Fluorescent Assay using pCAP substrate for In Vitro dose response studies - Set 4. [Related pubchem assays (depositor defined):AID1779, AID1784]; assay type: functional
# T5 sequence (P35372 whole entry): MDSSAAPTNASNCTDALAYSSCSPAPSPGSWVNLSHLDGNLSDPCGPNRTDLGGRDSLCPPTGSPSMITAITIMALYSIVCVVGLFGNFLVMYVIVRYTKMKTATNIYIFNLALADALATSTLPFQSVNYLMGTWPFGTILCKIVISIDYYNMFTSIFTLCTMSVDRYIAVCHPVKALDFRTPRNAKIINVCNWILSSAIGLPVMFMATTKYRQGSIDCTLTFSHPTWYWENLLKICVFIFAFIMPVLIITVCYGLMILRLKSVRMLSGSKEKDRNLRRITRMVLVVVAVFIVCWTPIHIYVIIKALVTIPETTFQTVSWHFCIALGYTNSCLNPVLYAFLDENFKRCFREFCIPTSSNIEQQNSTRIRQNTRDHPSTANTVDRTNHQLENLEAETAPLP
# T7 sequence (P41143 whole entry): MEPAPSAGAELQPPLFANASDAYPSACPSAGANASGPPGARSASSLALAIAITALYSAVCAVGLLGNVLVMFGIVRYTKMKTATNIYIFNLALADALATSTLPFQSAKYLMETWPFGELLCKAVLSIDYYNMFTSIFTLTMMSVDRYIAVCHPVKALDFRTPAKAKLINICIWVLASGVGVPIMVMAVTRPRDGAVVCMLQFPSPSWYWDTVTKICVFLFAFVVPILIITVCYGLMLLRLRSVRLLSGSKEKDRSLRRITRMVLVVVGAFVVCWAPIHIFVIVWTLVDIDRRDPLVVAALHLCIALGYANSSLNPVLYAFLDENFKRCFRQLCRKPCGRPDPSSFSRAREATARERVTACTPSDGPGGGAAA
# T6 sequence (P41145 whole entry): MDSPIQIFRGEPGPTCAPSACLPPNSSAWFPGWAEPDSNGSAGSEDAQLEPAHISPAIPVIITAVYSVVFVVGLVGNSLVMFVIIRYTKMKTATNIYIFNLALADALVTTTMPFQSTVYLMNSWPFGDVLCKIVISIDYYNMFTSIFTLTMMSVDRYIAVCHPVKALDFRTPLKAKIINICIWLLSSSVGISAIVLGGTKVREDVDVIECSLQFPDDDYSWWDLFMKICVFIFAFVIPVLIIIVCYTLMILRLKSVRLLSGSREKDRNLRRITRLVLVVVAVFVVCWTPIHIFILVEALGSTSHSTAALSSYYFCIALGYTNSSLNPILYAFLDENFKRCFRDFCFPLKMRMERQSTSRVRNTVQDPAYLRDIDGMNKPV
# T2 sequence (P11940 whole entry): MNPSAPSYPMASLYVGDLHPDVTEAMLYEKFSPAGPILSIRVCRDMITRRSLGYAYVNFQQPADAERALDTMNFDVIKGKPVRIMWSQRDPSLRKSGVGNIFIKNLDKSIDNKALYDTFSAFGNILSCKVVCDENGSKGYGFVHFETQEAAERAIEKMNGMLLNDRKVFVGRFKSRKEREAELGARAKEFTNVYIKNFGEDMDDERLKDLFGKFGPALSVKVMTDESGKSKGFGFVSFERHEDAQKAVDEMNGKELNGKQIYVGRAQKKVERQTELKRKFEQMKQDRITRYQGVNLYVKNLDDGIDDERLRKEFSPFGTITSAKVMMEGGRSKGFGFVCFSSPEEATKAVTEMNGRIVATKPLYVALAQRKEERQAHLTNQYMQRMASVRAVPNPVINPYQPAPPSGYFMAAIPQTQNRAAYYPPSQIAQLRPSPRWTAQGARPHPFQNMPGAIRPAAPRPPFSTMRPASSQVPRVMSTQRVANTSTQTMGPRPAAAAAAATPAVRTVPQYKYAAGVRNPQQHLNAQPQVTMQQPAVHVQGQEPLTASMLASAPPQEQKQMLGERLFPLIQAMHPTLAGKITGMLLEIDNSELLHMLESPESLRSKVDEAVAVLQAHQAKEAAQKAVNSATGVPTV
# Chain of Caspase-7 (P55210 24-198 limits assumed): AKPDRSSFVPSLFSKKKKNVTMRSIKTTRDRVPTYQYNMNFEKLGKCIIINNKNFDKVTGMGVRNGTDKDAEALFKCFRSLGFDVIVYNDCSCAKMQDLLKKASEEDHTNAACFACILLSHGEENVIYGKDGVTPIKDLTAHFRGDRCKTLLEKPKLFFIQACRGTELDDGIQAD
# Chain of Caspase-7 (P55210 207-303 limits assumed): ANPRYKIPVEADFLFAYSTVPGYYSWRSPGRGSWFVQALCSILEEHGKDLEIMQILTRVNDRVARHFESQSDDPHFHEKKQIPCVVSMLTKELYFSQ
# Chain of Eukaryotic translation initiation factor 4E (P63073 whole entry): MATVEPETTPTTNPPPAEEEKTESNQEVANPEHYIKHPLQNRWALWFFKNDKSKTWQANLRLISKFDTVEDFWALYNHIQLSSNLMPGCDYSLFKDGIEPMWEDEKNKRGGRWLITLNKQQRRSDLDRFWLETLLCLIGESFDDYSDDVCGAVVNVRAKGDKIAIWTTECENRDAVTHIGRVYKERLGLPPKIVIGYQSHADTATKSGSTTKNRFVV
# Chain of Induced myeloid leukemia cell differentiation protein Mcl-1 (Q07820 whole entry): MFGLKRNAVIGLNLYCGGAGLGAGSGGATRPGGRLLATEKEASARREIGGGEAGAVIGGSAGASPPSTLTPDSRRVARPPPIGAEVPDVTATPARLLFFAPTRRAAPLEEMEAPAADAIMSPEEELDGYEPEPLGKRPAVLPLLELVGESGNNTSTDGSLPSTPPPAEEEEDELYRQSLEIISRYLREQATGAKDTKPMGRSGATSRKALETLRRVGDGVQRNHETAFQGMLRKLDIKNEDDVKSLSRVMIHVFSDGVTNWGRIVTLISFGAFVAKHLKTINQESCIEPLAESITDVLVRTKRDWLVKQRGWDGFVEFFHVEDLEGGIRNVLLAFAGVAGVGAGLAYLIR
# Chain of C-C chemokine receptor type 6 (P51684 whole entry): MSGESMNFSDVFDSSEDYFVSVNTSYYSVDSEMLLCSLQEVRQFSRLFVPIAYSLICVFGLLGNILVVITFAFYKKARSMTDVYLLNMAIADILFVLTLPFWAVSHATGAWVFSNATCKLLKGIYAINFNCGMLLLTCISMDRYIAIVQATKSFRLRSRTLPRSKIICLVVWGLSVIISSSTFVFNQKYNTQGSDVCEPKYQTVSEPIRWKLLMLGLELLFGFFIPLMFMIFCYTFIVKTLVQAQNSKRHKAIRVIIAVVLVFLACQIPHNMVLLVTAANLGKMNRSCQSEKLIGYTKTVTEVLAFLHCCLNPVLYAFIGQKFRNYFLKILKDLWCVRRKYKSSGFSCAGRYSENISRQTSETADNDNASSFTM
# Chain of Glucose-6-phosphate 1-dehydrogenase (P11413 whole entry): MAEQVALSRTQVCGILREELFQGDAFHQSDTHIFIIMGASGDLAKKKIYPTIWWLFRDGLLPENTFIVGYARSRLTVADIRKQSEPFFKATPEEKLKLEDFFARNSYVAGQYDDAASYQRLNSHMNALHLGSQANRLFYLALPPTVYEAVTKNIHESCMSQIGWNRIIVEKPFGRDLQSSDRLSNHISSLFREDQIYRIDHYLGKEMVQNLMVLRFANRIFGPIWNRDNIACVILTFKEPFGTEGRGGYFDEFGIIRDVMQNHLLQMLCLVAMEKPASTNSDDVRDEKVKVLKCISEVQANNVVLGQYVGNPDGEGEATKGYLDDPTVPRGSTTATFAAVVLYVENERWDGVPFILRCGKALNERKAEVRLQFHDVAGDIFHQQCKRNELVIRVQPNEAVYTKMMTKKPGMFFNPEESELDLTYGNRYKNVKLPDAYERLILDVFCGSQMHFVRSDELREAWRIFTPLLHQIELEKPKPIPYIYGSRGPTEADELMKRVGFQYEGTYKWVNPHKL
# Chain of Beta-galactosidase (Q8VNN2 whole entry): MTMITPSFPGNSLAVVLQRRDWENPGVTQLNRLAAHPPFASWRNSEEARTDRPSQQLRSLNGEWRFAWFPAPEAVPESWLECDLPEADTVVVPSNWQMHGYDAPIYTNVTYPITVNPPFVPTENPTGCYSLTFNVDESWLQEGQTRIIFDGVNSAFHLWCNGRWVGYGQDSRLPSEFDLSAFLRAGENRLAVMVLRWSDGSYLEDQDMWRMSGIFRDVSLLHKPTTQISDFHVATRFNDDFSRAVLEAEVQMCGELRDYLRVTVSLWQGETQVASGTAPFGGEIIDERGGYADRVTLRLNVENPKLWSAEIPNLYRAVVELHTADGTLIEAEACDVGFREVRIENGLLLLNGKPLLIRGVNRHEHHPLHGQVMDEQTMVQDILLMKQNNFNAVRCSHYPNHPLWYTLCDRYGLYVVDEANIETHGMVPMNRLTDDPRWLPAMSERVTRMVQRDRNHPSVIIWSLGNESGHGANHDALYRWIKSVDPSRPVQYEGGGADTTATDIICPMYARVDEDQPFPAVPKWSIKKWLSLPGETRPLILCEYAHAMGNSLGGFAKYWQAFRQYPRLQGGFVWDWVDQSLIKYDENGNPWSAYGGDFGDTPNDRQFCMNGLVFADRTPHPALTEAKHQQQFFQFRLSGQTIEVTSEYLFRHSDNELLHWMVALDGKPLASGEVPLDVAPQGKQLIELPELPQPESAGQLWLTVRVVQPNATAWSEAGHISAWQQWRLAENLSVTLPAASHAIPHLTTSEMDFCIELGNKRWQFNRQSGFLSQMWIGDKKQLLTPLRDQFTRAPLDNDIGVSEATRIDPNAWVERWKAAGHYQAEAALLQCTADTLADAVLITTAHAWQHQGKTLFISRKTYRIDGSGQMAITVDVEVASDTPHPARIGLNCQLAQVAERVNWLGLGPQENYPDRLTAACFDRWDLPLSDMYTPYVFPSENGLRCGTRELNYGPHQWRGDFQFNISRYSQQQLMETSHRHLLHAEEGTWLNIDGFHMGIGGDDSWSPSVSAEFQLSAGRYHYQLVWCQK
smiles,measurement,setting,value
CNCc1ccccc1Sc1cc(O)ccc1O,IC50,Beta-galactosidase,> 66.6 µM (inactive)
same,IC50,Hexokinase HKDC1,3.35 µM (active)
same,IC50,[1],23.5 µM (inactive)
same,CC50,[2],38.8 µM (active)
same,IC50,[3],> 122 µM (inactive)
same,IC50,[4],> 66 µM (inactive)
same,CC50,[5],> 40 µM (active)
same,IC50,[6],> 64 µM (inactive)
same,IC50,[7],> 66 µM (inactive)
same,IC50,[8],4.5 µM (active)
same,IC50,[9],26.9 µM (inactive)
Cc1ccc(C)c(N(CC(=O)Nc2ccc(-c3nc4ccc(C)cc4s3)cc2)S(C)(=O)=O)c1,EC50,[10],2.78 µM (active)
same,EC50,[11],> 60 µM (inconclusive)
same,EC50,Caspase-3,> 85.2 µM (inactive)
same,EC50,Caspase-7,> 85.2 µM (inactive)
CC(C)CCN1C(=O)c2ccc(C(=O)Nc3ccc(Br)cc3C(=O)O)cc2C1=O,EC50,[12],> 160 µM (inactive)
same,IC50,[13],> 99 µM (inactive)
same,EC50,[14],2.46 µM (active)
same,EC50,[15],15.6 µM (active)
same,EC50,[16],> 180 µM (inactive)
Clc1cccc(CSc2nnc(-c3ccccn3)n2Cc2ccco2)c1,EC50,Mu-type opioid receptor [17],> 32 µM (inactive)
same,IC50,Mu-type opioid receptor [18],> 32 µM (inactive)
same,EC50,Mu-type opioid receptor [19],> 32 µM (inactive)
same,IC50,[20],> 32 µM (inactive)
same,EC50,[21],8.35 µM
same,CC50,[22],15.1 µM (active)
same,IC50,[23],> 32 µM (inactive)
same,EC50,[24],> 32 µM (inactive)
same,IC50,[25],> 32 µM (inactive)
same,EC50,[26],> 32 µM (inactive)
same,EC50,[27],5.6 µM
CCOC(=O)COc1ccc(/C=N/NC(=O)c2ccc(-c3csc(Nc4ccc(Cl)cc4)n3)cc2)cc1,IC50,[28],89 µM (active)
same,IC50,[29],37.4 µM (active)
same,IC50,[30],60.8 µM (active)
